Several values for one entry are separate records, joined by “and”; a condition that tells them apart may be missing. Equal values may be shown once. Read-outs that look alike come from different tables or passages of the source. Marks after values point to notes of the source that are not given here.
Tests used:
Zebra mussels [1] = experiment: Experiment 1: toxicity of different masses of KCl to Zebra mussels over two days; type: in vivo, Dreissena polymorpha
Protocol: The toxicity of KCl alone to Zebra mussels is illustrated in Table 1 below, which gives the results of the following experiment:
1) A series of pots where filled with 20 ml of distilled water plus a specified mass of KCl crystals, ground to less than 53 microns. The masses of KCl were chosen to represent the total amount of KCl that would be ingested by a mussel filtering 1 litre of water per day.
2) One mussel was placed in each pot (it was assumed that the mussel would continuously re-filter the limited amount of solution in the pot and thus ingest the required amount of KCl.

Zebra mussels [2] = type: in vivo, Dreissena polymorpha; conditions: Mass of toxin 100 mg
From the text: The toxicity of an alternative toxin was also investigated and compared with that of KCl.

Zebra mussels [3] = experiment: Experiment 8: Batch 7 particles versus KCl in beakers; type: in vivo, Dreissena polymorpha; conditions: for No. of live mussels in each pot: 1.15 g KCl
Protocol: A batch of particles (“Batch 7”) was manufactured by a fluidised bed coating method. 98 μm KCl particles were passed through a 350 μm sieve with 1% silica to help fluidisation. 800 g of solids were sprayed with palmitic acid (MP 61° C.) for 20 minutes at approximately 12 ml min^−1. 400 g of the resulting solids were then further coated with palmitic acid to finally produce particles containing between 20 and 25% wt of KCl.
40 1-litre beakers were filled with 500 ml of tap water and aerated overnight in a temperature controlled room at 25° C. Ten large Zebra mussels were placed into each beaker, attempting to keep a similar size range in all. Five different treatments were applied (such that each had eight replicates); • 1. 5 g of (Batch 7) was added. • 2. 0.5 g of (Batch 7) was added. • 3. 0.05 g of (Batch 7) was added. • 4. 5 g of Palmitic acid alone was added. • 5. 1.15 g of KCl (the same amount by mass as in 5 g of Batch 7) was added.
Each treatment substance was thoroughly stirred into each beaker and aeration continued for the duration of the experiment. At reasonably regular intervals, the number of dead mussels (as indicated by gape) were counted in each pot, before being removed and measured. This was continued until most were dead, or 72 hours had elapsed.

Zebra Mussel = conditions: cited from earlier work
Rainbow Trout = Rainbow Trout 0.8-1.2 g; cited from earlier work
Channel Catfish = Channel Catfish 0.8-1.2 g; cited from earlier work
Threehorn Wartyback = system: Threehorn Wartyback; parameters: unit not given here; conditions: Threehorn Wartyback 30-50 mm; cited from earlier work

For `[Cl-].[K+]` [KCl, potassium chloride], the state of mussel (Zebra mussels [1]; 0.1 mg KCl, 17/03/99 16:30) was “Alive”, the state of mussel (Zebra mussels [1]; 0.1 mg KCl, 18/03/99 11:30) was “Alive” and the state of mussel (Zebra mussels [1]; 0.1 mg KCl, 18/03/99 13:30) was “Alive”. The state of mussel (Zebra mussels [1]; 0.1 mg KCl, 19/03/99 16:00) was “Alive”, the state of mussel (Zebra mussels [1]; 0.5 mg KCl, 17/03/99 16:30) was “Alive” and the state of mussel (Zebra mussels [1]; 0.5 mg KCl, 18/03/99 11:30) was “Alive”. The state of mussel (Zebra mussels [1]; 0.5 mg KCl, 18/03/99 13:30) was “Closed”, the state of mussel (Zebra mussels [1]; 0.5 mg KCl, 19/03/99 16:00) was “Alive” and the state of mussel (Zebra mussels [1]; 1 mg KCl, 17/03/99 16:30) was “Alive”. For the same molecule, the state of mussel (Zebra mussels [1]; 1 mg KCl, 18/03/99 11:30) was “Alive”, the state of mussel (Zebra mussels [1]; 1 mg KCl, 18/03/99 13:30) was “Alive” and the state of mussel (Zebra mussels [1]; 1 mg KCl, 19/03/99 16:00) was “Alive”. The state of mussel (Zebra mussels [1]; 5 mg KCl, 17/03/99 16:30) was “Alive”, the state of mussel (Zebra mussels [1]; 5 mg KCl, 18/03/99 11:30) was “Alive” and the state of mussel (Zebra mussels [1]; 5 mg KCl, 18/03/99 13:30) was “Alive”. For the same molecule, the state of mussel (Zebra mussels [1]; 5 mg KCl, 19/03/99 16:00) was “Alive”, the state of mussel (Zebra mussels [1]; 10 mg KCl, 17/03/99 16:30) was “Alive” and the state of mussel (Zebra mussels [1]; 10 mg KCl, 18/03/99 11:30) was “Alive”. The state of mussel (Zebra mussels [1]; 10 mg KCl, 18/03/99 13:30) was “Closed”, the state of mussel (Zebra mussels [1]; 10 mg KCl, 19/03/99 16:00) was “Dead” and the state of mussel (Zebra mussels [1]; 25 mg KCl, 17/03/99 16:30) was “Alive”. The state of mussel (Zebra mussels [1]; 25 mg KCl, 18/03/99 11:30) was “Dead”, the state of mussel (Zebra mussels [1]; 25 mg KCl, 18/03/99 13:30) was “Dead” and the state of mussel (Zebra mussels [1]; 25 mg KCl, 19/03/99 16:00) was “Dead”. The state of mussel (Zebra mussels [1]; 50 mg KCl, 17/03/99 16:30) was “Alive”, the state of mussel (Zebra mussels [1]; 50 mg KCl, 18/03/99 11:30) was “Dead” and the state of mussel (Zebra mussels [1]; 50 mg KCl, 18/03/99 13:30) was “Dead”. The state of mussel (Zebra mussels [1]; 50 mg KCl, 19/03/99 16:00) was “Dead”, the “effectiveness of KCl alone over the test period” value (Zebra mussels [1]; lower concentrations) was “not effective” and the “Time for mortality of all mussels” value (Zebra mussels [2]) was 8 h. The mortality (Zebra mussels [2]; at 8 hours) was 60%, the “No. of live mussels in each pot” value (Zebra mussels [3]; 0.5 hrs) was 10 and the “No. of live mussels in each pot” value (Zebra mussels [3]; 1 hrs) was 10 and 9. For the same molecule, the “No. of live mussels in each pot” value (Zebra mussels [3]; 1.5 hrs) was 10 and 9, the “No. of live mussels in each pot” value (Zebra mussels [3]; 2 hrs) was 10 and 9 and 7 and the “No. of live mussels in each pot” value (Zebra mussels [3]; 3 hrs) was 9 and 8 and 7 and 10. For the same molecule, the “No. of live mussels in each pot” value (Zebra mussels [3]; 3.5 hrs) was 9 and 8 and 7 and 6, the “No. of live mussels in each pot” value (Zebra mussels [3]; 4.5 hrs) was 8 and 7 and 5 and 6 and 9 and the “No. of live mussels in each pot” value (Zebra mussels [3]; 5 hrs) was 7 and 6 and 4 and 5 and 8. For the same molecule, the “No. of live mussels in each pot” value (Zebra mussels [3]; 6 hrs) was 6 and 4 and 5 and 7, the “No. of live mussels in each pot” value (Zebra mussels [3]; 7.5 hrs) was 6 and 4 and 3 and 5 and the mortality (Zebra mussels [3]; 1.15 g of KCl, especially over the first 8 hours) was “rapid mortality”. The 48-hour LC50 (Zebra Mussel; Zebra Mussel 5-8 mm) was 147 µg/mL, the 48-hour LC50 (Zebra Mussel; Zebra Mussel 20-25 mm) was 150 µg/mL and the 48-hour LC50 (Rainbow Trout) was 1610 µg/mL. For the same molecule, the 48-hour LC50 (Channel Catfish) was 720 µg/mL and the “48-hour LC50” value (Threehorn Wartyback) was >2000^a.

Source: patent US7378104B2, “Delivering substances to invertebrate organisms” (priority 2000, dated 2008)
